Source: PMC7732128, “Regulation of gene transcription by thyroid hormone receptor β agonists in clinical development for the treatment of non-alcoholic steatohepatitis (NASH)” (PLoS ONE, 2020)
Like-named read-outs stand apart in the source and are kept apart here.

Test system: THR (ANGPTL4, CPT1A, DIO1 RNA in Huh-7 cells)
Test: Differential gene expression assay in Huh-7 cells
Type: cell-based, human
Details: for EC50: Homo sapiens; for fold less potent than T3: CPT1A transcription in Huh-7
Experimental: Hepatoma-derived Huh-7 cells (JCRB Cell Bank, JCRB0403) were obtained directly from the repository, which performed cell line authentication via isozyme analysis and comprehensively tested for microbial contamination, viral contamination, and cross culture contamination. Cells were routinely cultured in DMEM (Corning, 10-013-CM) supplemented with 10% FBS and 1% P/S at 37°C and 5% CO2 until 80–90% confluency. Cells were then detached with 0.05% trypsin (Corning, 25-052-CV), resuspended in TH-free medium (DMEM supplemented with 10% TH-depleted FBS and 1% P/S), and seeded into collagen-coated, 96-well microplates (Corning, 354407) at 5.0 x 10^4 cells/well. After 24 hrs, the culture medium was replaced with treatment media. Cells were treated for 24 hrs. TH-depletion of the FBS via resin treatment was accomplished as previously described. All treatment media were made by mixing test compounds, serially diluted in DMSO, with TH-free medium (0.1% final DMSO concentration).
After 24 hrs in treatment media, both Huh-7 cells and PHH were processed with the TaqMan Fast Advanced Cells-to-Ct Kit (Invitrogen, A35378), according to the manufacturer’s protocol. Briefly, the treatment media was removed and the cells were washed with 50 μL cold 1X phosphate-buffered saline (Corning, 21-040-CM). Fifty μL lysis buffer containing DNase I was added to each well and the plate was incubated on a rotor at RT for 5 mins. Five μL stop solution was then added to each well and after another 2 mins incubation on a rotor at RT, the cell lysates were used for reverse transcription. The resulting cDNA was diluted 1:2 with nuclease-free, distilled water (Invitrogen, 10977015). Gene expression was measured using TaqMan Fast Advanced Master Mix (Applied Biosystems, 4444964) and the following TaqMan Gene Expression assays (Applied Biosystems, 4331182): 18S (Hs99999901_s1), ACTB (Hs01060665_g1), ANGPTL4 (Hs01101123_g1), CPT1A (Hs00912671_m1), DIO1 (Hs00174944_m1), TFG (Hs02832013_g1), THRA (Hs00268470_m1), and THRB (Hs00230861_m1). ACTB and TFG served as control housekeeping genes for Huh-7 assays and 18S and ACTB for PHH assays. Ten μL reactions were run on the qTOWER³ 84 (Analytik Jena). Relative quantification (RQ) of gene expression was calculated via the 2^−ΔΔCt method and dose-response curves were fitted by non-linear regression with variable slope. Statistical analysis was performed in GraphPad Prism 8.
We aimed to develop an in vitro, cell-based assay that is not only amenable to high throughput screening of compounds, but that can also more reliably recapitulate in vivo processes. Because activated THR may function as a transcription factor, we compared the action of THR agonists in a human hepatocyte-derived cell line and in primary human hepatocytes (PHH) by quantifying transcriptional changes resulting from compound treatment (Fig 2A). Cells were cultured in TH-depleted media for 24 hrs and then treated with compounds for 24 hrs. The RNA levels of THR target genes were then measured via RT-qPCR.

[1] = Huh-7, CPT1A RNA, RT-qPCR, 24 hrs treatment, read-out: Huh-7 EC50 Mean ± SEM

EC50 [1] [nM]	EC50 (Huh-7, 24 hrs, n = 2 (Fig 2C), read-out: mean EC50, ANGPTL4) [nM]	EC50 (Huh-7, 24 hrs, n = 2 (Fig 2C), read-out: mean EC50, CPT1A) [nM]	EC50 (Huh-7, 24 hrs, n = 2 (Fig 2C), read-out: mean EC50, DIO1) [nM]	Compound	fold less potent than T3	times weaker than VK2809A (Huh-7 assay) [times]
8.3 ± 2.2	–	–	–	Cc1cc(OCP(=O)(O)O)cc(C)c1Cc1ccc(O)c(C(C)C)c1 [VK2809A]	approximately 30 fold	–
589 ± 120	–	–	–	Cc1cc(OCP2(=O)OCC[C@@H](c3cccc(Cl)c3)O2)cc(C)c1Cc1ccc(O)c(C(C)C)c1 (stereo partly drawn) [VK2809]	~2,000 fold	71
